Test results reported in PubChem BioAssay (NCI).
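Growth conditions: 96-well plates. Treatment: test compound, 48 hours, 5 concentrations. Analysis: linear interpolation between bracketing concentrations; unreached endpoints set to highest concentration. Here, GI50 denotes the concentration required for 50% inhibition of growth. TGI is the concentration that stops growth completely.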

Tests used:
Test in all cases: inhibition of tumour cell growth, NCI panel, 48 h
[1] = tested on: RXF 393 renal
[2] = tested on: HS 578T breast
[3] = tested on: HOP-92 NSCLC
[4] = tested on: DU-145 prostate
[5] = tested on: RPMI-8226 leukemia
[6] = tested on: SF-268 CNS
[7] = tested on: OVCAR-3 ovarian
[8] = tested on: HCT-15 colon
[9] = tested on: UO-31 renal
[10] = tested on: TK-10 renal

COc1cc2c3c(n(CCCNCCCNCCCN)c(=O)c2cc1OC)-c1cc2c(cc1C3=O)OCO2
GI50 [1]: > 100 µM
TGI [1]: > 100 µM
GI50 [2]: > 100 µM
TGI [2]: > 100 µM
GI50 [3]: > 100 µM
TGI [3]: > 100 µM
GI50 [4]: > 100 µM
TGI [4]: > 100 µM
GI50 [5]: > 100 µM
TGI [5]: > 100 µM
GI50 [6]: > 100 µM
TGI [6]: > 100 µM
GI50 [7]: 0.879 µM
TGI [7]: 52.6 µM
GI50 [8]: 73.6 µM
TGI [8]: > 100 µM
GI50 [9]: > 100 µM
TGI [9]: > 100 µM
GI50 [10]: > 100 µM
TGI [10]: > 100 µM

COc1ccc(C(O)c2cc3c(N)c(C(=O)Nc4cccc(Br)c4C)sc3nc2C)cc1 (configuration not stated)
GI50 [1]: 0.0944 µM
TGI [1]: 2.22 µM
GI50 [2]: 0.106 µM
TGI [2]: 3.75 µM
GI50 [3]: 0.261 µM
TGI [3]: 18 µM
GI50 [4]: 0.135 µM
TGI [4]: 4.54 µM
GI50 [5]: 0.167 µM
TGI [5]: > 33.3 µM
GI50 [6]: 0.405 µM
TGI [6]: > 27.8 µM
GI50 [7]: 0.103 µM
TGI [7]: 1.08 µM
GI50 [8]: 0.138 µM
TGI [8]: > 14.4 µM
GI50 [9]: 0.261 µM
TGI [9]: > 33.3 µM
GI50 [10]: 4.21 µM
TGI [10]: > 24.4 µM

CC1(C)C2CCC13C(=O)C1OC3(C2)C2C(=O)c3c(ccc4c3ccc3ccccc34)C(=O)C12 (configuration not stated)
GI50 [1]: 84 µM
TGI [1]: > 100 µM
GI50 [2]: > 56.1 µM
TGI [2]: > 100 µM
GI50 [3]: > 100 µM
TGI [3]: > 100 µM
GI50 [4]: > 100 µM
TGI [4]: > 100 µM
GI50 [5]: 19.2 µM
TGI [5]: > 60 µM
GI50 [6]: 70.5 µM
TGI [6]: > 100 µM
GI50 [7]: 40.7 µM
TGI [7]: > 100 µM
GI50 [8]: > 53.5 µM
TGI [8]: > 100 µM
GI50 [9]: > 100 µM
TGI [9]: > 100 µM
GI50 [10]: > 87.5 µM
TGI [10]: > 100 µM

COc1cc2cc(Oc3cccc(NC(=O)Nc4cc(C(F)(F)F)cc(C(F)(F)F)c4)c3)c(C)nc2cc1OC
GI50 [1]: 2.06 µM
TGI [1]: 4.79 µM
GI50 [2]: 2.65 µM
TGI [2]: 6.94 µM
GI50 [3]: 1.12 µM
TGI [3]: 3.9 µM
GI50 [4]: 2.38 µM
TGI [4]: 9.36 µM
GI50 [5]: 0.406 µM
TGI [5]: 5.51 µM
GI50 [6]: 1.62 µM
TGI [6]: 3.68 µM
GI50 [7]: 0.488 µM
TGI [7]: 1.7 µM
GI50 [8]: 0.668 µM
TGI [8]: 2.04 µM
GI50 [9]: 0.266 µM
TGI [9]: 1.65 µM
GI50 [10]: 2.32 µM
TGI [10]: 9.18 µM

CC(=O)Oc1cc2cnc3c4cc(OC(C)=O)c(OC(C)=O)cc4ccc3c2cc1OC(C)=O
GI50 [1]: 1.79 µM
TGI [1]: 8.88 µM
GI50 [2]: 1.01 µM
TGI [2]: 9.56 µM
GI50 [3]: 0.538 µM
TGI [3]: 37.9 µM
GI50 [4]: 2.61 µM
TGI [4]: > 100 µM
GI50 [5]: 1.66 µM
TGI [5]: > 100 µM
GI50 [6]: 1.22 µM
TGI [6]: 17.6 µM
GI50 [7]: 1.01 µM
TGI [7]: 9.5 µM
GI50 [8]: 1.06 µM
TGI [8]: > 100 µM
GI50 [9]: 0.472 µM
TGI [9]: > 100 µM
GI50 [10]: 2.78 µM
TGI [10]: > 100 µM

Cc1ccc(OC(=O)N2C/C(=C\c3ccccc3)C(=O)/C(=C/c3ccccc3)C2)cc1
TGI [1]: 37.5 µM
TGI [2]: 76.5 µM
TGI [3]: > 100 µM
TGI [4]: > 100 µM
TGI [5]: 1.9 µM
TGI [6]: 98.5 µM
TGI [7]: 37.4 µM
TGI [8]: > 100 µM
TGI [9]: 85 µM
TGI [10]: > 87.9 µM

CC[C@H]1OC(=O)[C@H](C)[C@@H](O[C@H]2C[C@@](C)(OC)[C@@H](O)[C@H](C)O2)[C@H](C)[C@@H](O[C@@H]2O[C@H](C)C[C@H](N(C)C)[C@H]2O)[C@](C)(OC)C/C(C)=C2/O[C@@]1(C)C=C2C
GI50 [1]: 2.09 µM
TGI [1]: 3.75 µM
GI50 [2]: 1.68 µM
TGI [2]: 3.62 µM
GI50 [3]: 1.57 µM
TGI [3]: 3.82 µM
GI50 [4]: 1.82 µM
TGI [4]: 3.39 µM
GI50 [5]: 1.9 µM
TGI [5]: 5.14 µM
GI50 [6]: 1.6 µM
TGI [6]: 3.3 µM
GI50 [7]: 1.76 µM
TGI [7]: 3.28 µM
GI50 [8]: 1.89 µM
TGI [8]: 3.6 µM
GI50 [9]: 1.37 µM
TGI [9]: 2.65 µM
GI50 [10]: 1.72 µM
TGI [10]: 3.32 µM

CN1CC[C@H](c2c(O)cc(O)c3c(=O)cc(-c4ccccc4Cl)oc23)[C@H](O)C1
GI50 [1]: 0.0204 µM
TGI [1]: 0.0671 µM
GI50 [2]: 0.0618 µM
TGI [2]: 0.398 µM
GI50 [3]: 0.0693 µM
TGI [3]: 0.524 µM
GI50 [4]: 0.075 µM
TGI [4]: > 10 µM
GI50 [5]: 0.076 µM
TGI [5]: > 2.32 µM
GI50 [6]: 0.0647 µM
GI50 [7]: 0.0546 µM
TGI [7]: > 10 µM
TGI [8]: > 10 µM
GI50 [9]: 0.0662 µM
TGI [9]: > 10 µM
GI50 [10]: 0.0999 µM
TGI [10]: > 10 µM

O=c1cccc(Cl)[nH]1
TGI [1]: > 100 µM
TGI [2]: > 100 µM
TGI [3]: > 100 µM
TGI [4]: > 100 µM
TGI [5]: > 100 µM
TGI [6]: > 100 µM
TGI [7]: > 100 µM
TGI [8]: > 100 µM
TGI [9]: > 100 µM
TGI [10]: > 100 µM

C=C1C[C@@H]2O[C@H]3[C@H]4[C@@H](CC[C@@](C)(OC(=O)CCC)[C@H]42)[C@@H](C)C(=O)O[C@@]3(C)CC[C@H]1OO
GI50 [1]: 27.6 µM
TGI [1]: 88.6 µM
GI50 [2]: > 100 µM
TGI [2]: > 100 µM
GI50 [3]: 13.3 µM
TGI [3]: 26 µM
GI50 [4]: 18 µM
TGI [4]: 32.8 µM
GI50 [5]: 14 µM
TGI [5]: 28.8 µM
GI50 [6]: 12.8 µM
TGI [6]: 26 µM
GI50 [7]: 13.9 µM
TGI [7]: 29.2 µM
GI50 [8]: 16.2 µM
TGI [8]: 29.7 µM
GI50 [9]: 17.9 µM
TGI [9]: 33.7 µM
GI50 [10]: 26.1 µM
TGI [10]: 49.4 µM

COc1ccc(-c2c(N)noc2-c2cc(OC)c3c(c2)OCCO3)cc1
GI50 [1]: < 0.01 µM
TGI [1]: 0.0467 µM
GI50 [2]: < 0.0106 µM
TGI [2]: > 100 µM
GI50 [3]: 0.12 µM
TGI [3]: > 40 µM
GI50 [4]: 0.0202 µM
TGI [4]: 0.193 µM
GI50 [5]: 0.0333 µM
TGI [5]: 17.9 µM
GI50 [6]: 0.0481 µM
TGI [6]: > 100 µM
GI50 [7]: < 0.01 µM
TGI [7]: < 0.0126 µM
GI50 [8]: < 0.01 µM
TGI [8]: > 100 µM
GI50 [9]: < 0.024 µM
TGI [9]: 56.9 µM
GI50 [10]: 0.562 µM
TGI [10]: > 56.6 µM

CC1(C)N=C(N)N=C(N)N1c1cccc(CCc2ccccc2)c1
GI50 [1]: 3.82 µM
TGI [1]: > 100 µM
GI50 [2]: 22.4 µM
TGI [2]: > 100 µM
GI50 [3]: 2.65 µM
TGI [3]: 34.4 µM
GI50 [4]: 0.552 µM
TGI [4]: > 100 µM
GI50 [5]: 1.63 µM
TGI [5]: > 58.6 µM
GI50 [6]: 0.34 µM
TGI [6]: 57.5 µM
GI50 [7]: 0.44 µM
TGI [7]: 24.9 µM
GI50 [8]: 45.6 µM
TGI [8]: > 100 µM
GI50 [9]: > 100 µM
TGI [9]: > 100 µM
GI50 [10]: 1.9 µM
TGI [10]: > 100 µM

COc1cc(NC2CCCCC2O)c2nc(-c3ccc(Cl)cc3)ccc2c1 (configuration not stated)
GI50 [1]: 2.78 µM
TGI [1]: 4.58 µM
GI50 [2]: 2.88 µM
TGI [2]: 13.2 µM
GI50 [3]: 18.7 µM
TGI [3]: 88.3 µM
GI50 [4]: 12.7 µM
TGI [4]: 58 µM
GI50 [5]: 3.66 µM
TGI [5]: 25 µM
GI50 [6]: 9.68 µM
TGI [6]: > 100 µM
GI50 [7]: 10.5 µM
TGI [7]: 32.8 µM
GI50 [8]: 2.94 µM
TGI [8]: 22.4 µM
GI50 [9]: 6.31 µM
TGI [9]: 88.5 µM
GI50 [10]: 14.6 µM
TGI [10]: > 100 µM

COc1ccc(/C=C/C(=O)c2cc3c(N)c(C(=O)Nc4ccc(OC)cc4)sc3nc2C)cc1
GI50 [1]: 0.124 µM
GI50 [2]: 0.211 µM
TGI [2]: > 11.8 µM
GI50 [3]: 0.757 µM
TGI [3]: > 50 µM
GI50 [4]: 0.184 µM
TGI [4]: 7.78 µM
GI50 [5]: 0.348 µM
TGI [5]: > 34 µM
GI50 [6]: 2.02 µM
TGI [6]: > 50 µM
GI50 [7]: 0.0276 µM
TGI [7]: 1.96 µM
GI50 [8]: 0.391 µM
TGI [8]: > 50 µM
GI50 [9]: 0.988 µM
TGI [9]: > 50 µM
GI50 [10]: 2.85 µM
TGI [10]: > 50 µM
